Blank lines part the entries; values can stand above or below the compound they belong to.
Tests used:
[1] = Drug tissue distribution after oral administration to mice; details: for Drug concentration Brain / Drug concentration Colon / Drug concentration Heart / Drug concentration Kidney / Drug concentration Liver / Drug concentration Lung / Drug concentration Muscle / Drug concentration Plasma / Drug concentration Spleen: mice, 10 mg/kg oral
Description: 250 mg of CMC-Na was weighted accurately, dissolved in 50 mL of mili-Q water, and sonicated for 1 h to prepare a 0.5% (m/v) CMC-Na solution for later use. […] After vortexing to dissolve, 140 µL of Tween 80 was added and mixed by vortex. Then 6.72 mL of CMC-Na solution was added and sonicated for 30 min to obtain 7 mL of a 1.0 mg/mL solution for use.
Mice were able to eat and drink freely and randomly divided into groups, with 3 mice in each group, and each mouse was gavaged with a dosage volume of 10 mL/kg. Blood was collected from the orbital venous plexus 1 and 4 hours after administration. Approximately 500 µL of mouse blood was placed in an EDTA-K2 anticoagulant tube. At the same time points, the brain, heart, lung, liver, kidney, spleen, colon, and muscle tissues of the mice were collected. […] Mouse brain, heart, lung, liver, kidney, spleen, colon, and muscle tissues were ground into tissue homogenate using a grinder with physiological saline equal to 5 times the weight of the tissue. The homogenate was centrifuged at 3,000 rpm for 10 min, and the supernatant was stored at -80°C for later use.
198 µL of plasma sample was placed in a centrifuge tube, 2 µl of internal standard solution was added, then 400 µL of acetonitrile was added, mixed by vortex for 1 min, and centrifuged at 13,000 rpm for 6 min. All the supernatant was taken, evaporated at room temperature for two days, re-dissolved in 200 µL of acetonitrile solvent, filtered with a 0.22 µm filter membrane and then injected for testing. 198 µL of the tissue homogenate supernatant sample was placed in a centrifuge tube, 2 µl of internal standard solution was added, then 400 µL of acetonitrile was added, mixed by vortex for 1 min, and centrifuged at 13,000 rpm for 6 min. All the supernatant was taken, evaporated at room temperature for two days, re-dissolved in 200 µL of acetonitrile solvent, filtered with a 0.22 µm filter membrane and then injected for testing.
Chromatographic column: Ultimate XB-C18 3 µM 2.1*100 mm; flow rate: 0.3 mL/min; column temperature: 30 °C; injection volume: 5 µL; mobile phase: A (pure water, containing 0.1% by volume formic acid), B (acetonitrile). The mass spectrometry ion source was an electrospray ionization (ESI) ionization source with a source temperature of 300°C.

hTRPC5 = target: T1, hTRPC5 (Homo sapiens, UniProt Q9UL62); test: TRPC5 inhibitory activity assay (FLIPR calcium flux, Fluo-4, agonist Englerin A); type: cell-based; details: HEK-293 cells expressing hTRPC5; agonist Englerin A 0.3 nM
T1 construct: expressed in transfected cells; host or cells: HEK-293
T1 sequence (Q9UL62 1-973): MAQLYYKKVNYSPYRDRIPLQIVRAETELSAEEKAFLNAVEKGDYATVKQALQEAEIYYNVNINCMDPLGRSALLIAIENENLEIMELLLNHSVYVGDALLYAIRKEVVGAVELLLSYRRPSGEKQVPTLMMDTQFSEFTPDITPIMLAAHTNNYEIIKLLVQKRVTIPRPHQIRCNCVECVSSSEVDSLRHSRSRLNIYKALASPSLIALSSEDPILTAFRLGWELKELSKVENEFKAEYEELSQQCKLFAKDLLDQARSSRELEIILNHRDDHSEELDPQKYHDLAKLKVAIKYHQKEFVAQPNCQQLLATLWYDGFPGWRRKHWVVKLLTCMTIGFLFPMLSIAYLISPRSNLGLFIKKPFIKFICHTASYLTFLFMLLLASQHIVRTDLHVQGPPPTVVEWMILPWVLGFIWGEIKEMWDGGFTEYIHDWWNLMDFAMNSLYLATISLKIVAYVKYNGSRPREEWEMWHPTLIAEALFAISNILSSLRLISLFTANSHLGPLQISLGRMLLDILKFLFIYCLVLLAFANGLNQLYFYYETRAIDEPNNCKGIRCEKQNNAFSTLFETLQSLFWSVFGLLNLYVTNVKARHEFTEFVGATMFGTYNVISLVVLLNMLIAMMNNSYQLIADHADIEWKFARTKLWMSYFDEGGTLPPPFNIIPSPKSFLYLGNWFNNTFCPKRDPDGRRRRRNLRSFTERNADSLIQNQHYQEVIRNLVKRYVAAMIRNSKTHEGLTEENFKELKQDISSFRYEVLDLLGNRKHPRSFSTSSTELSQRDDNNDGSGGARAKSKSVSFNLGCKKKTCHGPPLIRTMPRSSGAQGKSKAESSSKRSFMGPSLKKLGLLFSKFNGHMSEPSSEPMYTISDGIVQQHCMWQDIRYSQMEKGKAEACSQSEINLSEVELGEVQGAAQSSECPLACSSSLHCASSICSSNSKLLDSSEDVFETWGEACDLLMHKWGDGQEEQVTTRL
Description: HEK-293 cells expressing hTRPC4 or hTRPC5 were seeded into polylysine (PDL)-coated, black-bottomed, transparent 96-well plates at 2 × 10^4 cells per well. After 8 h of culture, the culture medium was discarded and 60 µL of 4 µM Fluo-4/AM dye was added. The plates were incubated at 37°C for 60 min and then rinsed five times with calcium flux assay buffer. […] After recording for 60 seconds, solvent control, test compound and positive inhibitor were added, and the signal was collected for another 300 seconds. Then, the agonist Englerin A (EA) (MedChemExpress, Shanghai, China, final concentration of 0.3 nM) was added, and the fluorescence signal was collected for another 600 seconds. The fluorescence signal in the trajectory diagram was expressed as F/F0, wherein F was the fluorescence signal at different time points and F0 was the basic fluorescence signal, that is, the average of the fluorescence signals at the first 10 time points. The dose-effect curve is first established with F/F0 = 1 as the baseline. The area under the curve of the fluorescence intensity change after the addition of EA was calculated. The IC50 value was calculated using the log[Inhibitor] vs. response - Variable slope, combining the area under the curve and the log value of the compound concentration.

[2] = Liver microsome stability test (human); details: for MF %: human liver microsomes, metabolic bioavailability; for half-life at 1 µM: human, liver microsomes, pH 7.4
Description: (§1) 0.1M pH 7.4 Tris buffer was prepared and then this buffer was used to prepare a 100 mM MgCl2 solution and a 10 mM coenzyme factor NADPH solution. The test compound was first prepared as a stock solution in DMSO and then diluted to a working concentration with 0.1% (w/v) BSA-PBS solution as needed.
(§2) During the assay, the liver microsome in TRIS buffer (final concentration of 0.33 mg/mL microsome protein), MgCl2 solution (final concentration of 5 mM), test compound solution (final concentration of 1 µM), and NADPH solution (final concentration of 1 mM) were incubated at 37°C. The reaction was terminated by adding methanol at 0, 7, 17, 30, and 60 minutes. The residual concentration of the test compound was determined using LC/MS/MS.
(§3) Calculation of in vivo clearance: Cl = (Clint × Houston × LW)/(1000); [formula]
(§4) Calculation of hepatic clearance: Clhep = (HBF × fu × Cl)/(HBF + (fu×Cl)); [formula]
(§5) Calculation of Metabolic utilization rate: %MF = 100−(Clhep × 100)/(HBF). [formula]
(§6) ke: Slope of the linear regression line (absolute value of slope) when plotting semi-logarithmic graph. The semi-logarithmic plot was made with the semi-logarithm of the remaining percentage of substrate versus reaction time. P: Microsome protein concentration (mg/mL); Houston: Houston factor (45 mg microsome protein/g liver); LW: Liver weight (g); HBF: Hepatic blood flow (mL/min); fu: Unbound fraction (typically fu=1).

[3] = Liver microsome stability test (mouse); details: for MF %: mouse liver microsomes, metabolic bioavailability; for half-life at 1 µM: mouse, liver microsomes, pH 7.4
Description: as §1, §2, §3, §4, §5, §6

in vitro [4] = details: mouse, microsomes, pH 7.4
Description: as §1, §2, §3, §4, §5, §6

in vitro [5] = details: human, microsomes, pH 7.4
Description: as §1, §2, §3, §4, §5, §6

[6] = tested on: DOCA-salt hypertensive nephropathy rats; test: DOCA-salt-induced hypertensive nephropathy rat model; type: in vivo, SD rats; details: oral treatment for 3 weeks, losartan 30 mg/kg once a day
Description: After one week of adaptive feeding, 40 healthy male SD rats (SPF grade, 6 weeks old, weighing 200 g) were randomly divided into cages and fed with normal water. Five rats were selected as the normal group. The other 35 rats were weighed and anesthetized with 6% (w/v) chloral hydrate (200 g/ml, Sinopharm Group Reagent Company) intraperitoneally. The dorsal surgical area was then trimmed and the rats were fixed in a prone position on a surgical board. After strict disinfection, a 2-cm incision was made on the left side of the spine, below the twelfth rib. The muscles were separated, the renal capsule was freed, and the left kidney was exposed. The renal artery and vein were ligated close to the renal hilum, and the left kidney was removed. After clearing congestion, the muscle layer and skin were sutured. After surgery (after waking up from anesthesia), the rats were given an intraperitoneal injection of penicillin sodium (80,000 units intraperitoneal injection, for 3 consecutive days, prepared with normal saline. If 400,000 units of powder were used with 2.5 mL of normal saline, and 0.5 mL was injected per mouse per day). Afterwards, the normal group was given a subcutaneous injection of vegetable oil (commonly corn oil) and fed with tap water; the DOCA-salt modeling group was given a subcutaneous injection of deoxycorticosterone acetate (DOCA, CAS: 56-47-3, Shanghai Aladdin Biochemical Technology) dissolved in vegetable oil once a week, 30 mg/kg each time, and 10 g/L NaCl and 2 g/L KCl were added to the drinking water. The model was established after 4 consecutive weeks of induction.
Four weeks after modeling, the DOCA-salt hypertensive nephropathy rats were divided into four groups according to UACR. The drug was dissolved in 2% (v/v) DMSO + 2% (w/v) Tween 80 + physiological saline system and administered by gavage. […] Normal group: 5 rats, raised normally. Each group had free access to food and water.
After the start of drug administration, rats were placed in metabolic cages to collect 24 hours urine per week. […] Three weeks after administration, serum was collected to check the concentrations of blood creatinine and urea nitrogen. Then, the rats were euthanized under anesthesia, and the renal tissues were obtained. The RNA levels of nephrin and podocin were detected by quantitative RT-PCR.
GraphPad Prism (Ver 6.0) was used for statistical analysis. All data were expressed as mean ± standard error (mean ± SEM). One-way ANOVA was used to analyze the data. Dunnett's multiple test was used to analyze the significance of the differences between the groups. When P < 0.05, the differences between the groups were statistically significant.

[7] = E21 high dose (10 mg/kg morning and evening), Figure 4
[8] = E21 medium dose (5 mg/kg morning and evening), Figure 3

SMILES: COC(c1ccc(F)cc1Cl)c1cnc2n1CCN(c1cn[nH]c(=O)c1Cl)C2 (racemic) [Example E21, 4-chloro-5-(3-((2-chloro-4-fluorophenyl)(methoxy)methyl)-5,6-dihydroimidazo[1,2-a]pyrazin-7(8H)-yl)pyridazin-3(2H)-one]
drug exposure and distribution in plasma, liver, and kidney ([1]; 1 and 4 hours after oral administration to mice): good | Drug concentration Brain ([1]; 1 h): 52 ng/g | Drug concentration Colon ([1]; 1 h): 824 ng/g | Drug concentration Heart ([1]; 1 h): 191 ng/g | Drug concentration Kidney ([1]; 1 h): 719 ng/g | Drug concentration Liver ([1]; 1 h): 565 ng/g | Drug concentration Lung ([1]; 1 h): 219 ng/g | Drug concentration Muscle ([1]; 1 h): 153 ng/g | Drug concentration Plasma ([1]; 1 h): 1147 ng/mL | Drug concentration Spleen ([1]; 1 h): 531 ng/g | Drug concentration Brain ([1]; 4 h): 28 ng/g | Drug concentration Colon ([1]; 4 h): 133 ng/g | Drug concentration Heart ([1]; 4 h): 26 ng/g | Drug concentration Kidney ([1]; 4 h): 97 ng/g | Drug concentration Liver ([1]; 4 h): 205 ng/g | Drug concentration Lung ([1]; 4 h): 39 ng/g | Drug concentration Muscle ([1]; 4 h): 52 ng/g | Drug concentration Plasma ([1]; 4 h): 250 ng/mL | Drug concentration Spleen ([1]; 4 h): 60 ng/g

SMILES: [N-]=[N+]=NC(c1ccc(F)cc1C(F)(F)F)c1cnc2n1CCN(c1cn[nH]c(=O)c1Cl)C2 (stereo not shown) [Example E9, 5-(3-(azido(4-fluoro-2-(trifluoromethyl)phenyl)methyl)-5,6-dihydroimidazo[1,2-a]pyrazin-7(8H)-yl)-4-chloropyridazin-3(2H)-one]
IC50 (hTRPC5): 24.6 nM

SMILES: COC(c1cc(F)ccc1Cl)c1cnc2n1CCN(c1cn[nH]c(=O)c1Cl)C2 (stereo not shown) [Example E22, 4-chloro-5-(3-((2-chloro-5-fluorophenyl)(methoxy)methyl)-5,6-dihydroimidazo[1,2-a]pyrazin-7(8H)-yl)pyridazin-3(2H)-one]
IC50 (hTRPC5): 60.1 nM

SMILES: [N-]=[N+]=NC(c1cc(F)ccc1Cl)c1cnc2n1CCN(c1cn[nH]c(=O)c1Cl)C2 (stereo not shown) [Example E30, 5-(3-(azido(2-chloro-5-fluorophenyl)methyl)-5,6-dihydroimidazo[1,2-a]pyrazin-7(8H)-yl)-4-chloropyridazin-3(2H)-one]
IC50 (hTRPC5): 37.1 nM

SMILES: O=c1[nH]ncc(N2CCn3c(Cc4ccc(F)cc4C(F)(F)F)cnc3C2)c1Cl [Example L002]
IC50 (hTRPC5): 10.4 nM | half-life at 1 µM (in vitro [4]): 0.645 h | half-life at 1 µM (in vitro [5]): 1.1 h

SMILES: CCCCc1nc(Cl)c(CO)n1Cc1ccc(-c2ccccc2-c2nn[nH]n2)cc1 [losartan]
levels of nephrin (mRNA, kidney) [6, 7]: effectively increase | levels of podocin (mRNA, kidney) [6, 7]: effectively increase | serum creatinine (Scr) [6, 8]: effectively reduce | urea nitrogen (BUN) [6, 8]: no effect

Continued, values first:

MF % [2]: 63.8% | half-life at 1 µM [2]: 3.15 h | MF % [3]: 55.9% | half-life at 1 µM [3]: 0.997 h
SMILES: [2H]C([2H])([2H])OC(c1ccc(F)cc1C)c1cnc2n1CCN(c1cn[nH]c(=O)c1Cl)C2 (stereo not shown) [Example E24, 4-chloro-5-(3-((4-fluoro-2-methylphenyl)(methoxy-d3)methyl)-5,6-dihydroimidazo[1,2-a]pyrazin-7(8H)-yl)pyridazin-3(2H)-one]

IC50 (hTRPC5): 5.28 nM
SMILES: C=C(c1cc(F)ccc1Cl)c1cnc2n1CCN(c1cn[nH]c(=O)c1Cl)C2 [Example E27, 4-chloro-5-(3-(1-(2-chloro-5-fluorophenyl)vinyl)-5,6-dihydroimidazo[1,2-a]pyrazin-7(8H)-yl)pyridazin-3(2H)-one]

IC50 (hTRPC5): 18.3 nM
SMILES: CC(c1ccc(F)cc1Cl)c1cnc2n1CCN(c1cn[nH]c(=O)c1Cl)C2 (stereo not shown) [Example E28, 4-chloro-5-(3-(1-(2-chloro-4-fluorophenyl)ethyl)-5,6-dihydroimidazo[1,2-a]pyrazin-7(8H)-yl)pyridazin-3(2H)-one]

MF % [2]: 39.6% | half-life at 1 µM [2]: 1.17 h | MF % [3]: 54.4% | half-life at 1 µM [3]: 0.94 h
SMILES: CC(c1cc(F)ccc1Cl)c1cnc2n1CCN(c1cn[nH]c(=O)c1Cl)C2 (stereo not shown) [Example E29, 4-chloro-5-(3-(1-(2-chloro-5-fluorophenyl)ethyl)-5,6-dihydroimidazo[1,2-a]pyrazin-7(8H)-yl)pyridazin-3(2H)-one]

IC50 (hTRPC5): 146 nM
SMILES: O=C(c1ccc(F)cc1C(F)(F)F)c1nnc2n1CCN(c1cn[nH]c(=O)c1Cl)C2 [Example E41, 4-chloro-5-(3-(4-fluoro-2-(trifluoromethyl)benzoyl)-5,6-dihydro-[1,2,4]triazolo[4,3-a]pyrazin-7(8H)-yl)pyridazin-3(2H)-one]

Reference: patent publication EP4703361A1, “PYRIDAZINONE TRPC4/5 INHIBITOR AND USE THEREOF” (Shanghai Institute of Materia Medica, Chinese Academy of …, priority 2023, dated 2024)
